Patent publication US10294202B2, “Pyrrolidinones as herbicides” (FMC Corporation, priority 2013, dated 2019)

Legend:
[1] = system: barnyardgrass; test: Test A pre-/postemergence herbicide test; format: in vivo, Echinochloa crus-galli
Summary of the method: (§1)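 Visual 0–100 ratings (100 = complete control) made about 10 days after treatment, greenhouse-held plants compared with untreated controls. Treatments: postemergence sprays on one- to two-leaf plants (2–10 cm tall) and preemergence directed soil sprays after planting in loam–sand, chemicals formulated in non-phytotoxic solvent containing surfactant.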

[2] = system: giant foxtail; test: Test A pre-/postemergence herbicide test; format: in vivo, Setaria faberii
Summary of the method: as §1

[3] = system: pigweed; test: Test A pre-/postemergence herbicide test; format: in vivo, Amaranthus retroflexus
Summary of the method: as §1

[4] = system: galium; test: Test C pre-/postemergence herbicide test; format: in vivo, Galium aparine
Summary of the method: (§2)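 Greenhouse plants scored visually against untreated controls 13–15 days after treatment, 0 = no effect, 100 = complete control. Test chemicals in a non-phytotoxic solvent with surfactant were applied either to soil (loam/sand) at planting or to foliage of 1- to 4-leaf plants, 2–18 cm tall.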

[5] = system: crabgrass, large; test: Test C pre-/postemergence herbicide test; format: in vivo, Digitaria sanguinalis
Summary of the method: as §2

[6] = system: foxtail, giant; test: Test C pre-/postemergence herbicide test; format: in vivo, Setaria faberii
Summary of the method: as §2

[7] = system: lambsquarters; test: Test C pre-/postemergence herbicide test; format: in vivo, Chenopodium album
Summary of the method: as §2

[8] = system: morningglory; test: Test C pre-/postemergence herbicide test; format: in vivo, Ipomoea coccinea
Summary of the method: as §2

[9] = system: barnyardgrass; test: Test C pre-/postemergence herbicide test; format: in vivo, Echinochloa crus-galli
Summary of the method: as §2

[10] = system: waterhemp; test: Test C pre-/postemergence herbicide test; format: in vivo, Amaranthus rudis
Summary of the method: as §2

[11] = system: oat, wild; test: Test C pre-/postemergence herbicide test; format: in vivo, Avena fatua; conditions: Postemergence
Summary of the method: as §2

[12] = system: velvetleaf; test: Test C pre-/postemergence herbicide test; format: in vivo, Abutilon theophrasti
Summary of the method: as §2

[13] = Postemergence, 125 g ai/ha, visual rating on 0 to 100 scale (0 no effect, 100 complete control), approx. 10 days
[14] = Postemergence, 500 g ai/ha, 0 to 100 scale (0 no effect, 100 complete control)
[15] = Preemergence, 125 g ai/ha, 0 to 100 scale where 0 is no effect and 100 is complete control
[16] = Preemergence, 500 g ai/ha, visual rating on 0 to 100 scale (0 no effect, 100 complete control)
[17] = Postemergence, 31 g ai/ha, scale 0 to 100 (0 no effect, 100 complete control)
[18] = Postemergence, 62 g ai/ha, scale 0 (no effect) to 100 (complete control)
[19] = Postemergence, 125 g ai/ha, scale 0 to 100 (0 no effect, 100 complete control)
[20] = Postemergence, 250 g ai/ha, scale 0 to 100 (0 no effect, 100 complete control)
[21] = Preemergence, 31 g ai/ha, scale 0 to 100, 0 is no effect and 100 is complete control
[22] = Preemergence, 62 g ai/ha, scale 0 to 100 (0 no effect, 100 complete control)
[23] = Preemergence, 125 g ai/ha, scale 0 to 100
[24] = Preemergence, 125 g ai/ha, scale 0 to 100 (0 no effect, 100 complete control)
[25] = 31 g ai/ha, scale 0 to 100 (0 no effect, 100 complete control)
[26] = 62 g ai/ha, scale 0 (no effect) to 100 (complete control)
[27] = 125 g ai/ha, scale 0 to 100 (0 no effect, 100 complete control)
[28] = 250 g ai/ha, scale 0 to 100 (0 no effect, 100 complete control)

O=C1NCC(c2cccc(Br)c2)C1C(=O)Nc1cccc(F)c1F (stereo not drawn) [Compound 309]
80: Plant response rating, Barnyardgrass [1, 13] | Plant response rating, Barnyardgrass [1, 15] | Barnyardgrass plant response rating [1, 16] | Plant response rating, Foxtail, Giant [2, 13] | Plant response rating, Foxtail, Giant [6, 20]
50: Plant response rating (scale of 0 to 100), Lambsquarters ([7]; Preemergence, 250 g ai/ha)
70: Plant response rating, Lambsquarters [7, 20]
0: Plant response rating, Pigweed [3, 13] | Plant response rating, Pigweed [3, 14] | Plant response rating, Pigweed [3, 15] | Pigweed plant response rating [3, 16] | Galium plant response rating [4, 21] | Galium plant response rating [4, 22] | Plant response rating, Crabgrass, Large [5, 17] | Plant response rating, Foxtail, Giant [6, 18] | Lambsquarters plant response rating [7, 21] | Lambsquarters plant response rating [7, 22] | Morningglory plant response rating [8, 21] | Morningglory plant response rating [8, 22] | Plant response rating, Barnyardgrass [9, 17] | Plant response rating, Waterhemp [10, 17] | Waterhemp plant response rating [10, 22] | Plant response rating, Oat, Wild [11, 25] | Plant response rating, Oat, Wild [11, 26] | Plant response rating, Oat, Wild [11, 27] | Plant response rating, Oat, Wild [11, 28] | Velvetleaf plant response rating [12, 22] | Plant response rating, Velvetleaf [12, 23]
90: Plant response rating, Barnyardgrass [1, 14] | Plant response rating, Foxtail, Giant [2, 14] | Plant response rating, Foxtail, Giant [2, 15] | Foxtail, Giant plant response rating [2, 16] | Crabgrass, Large plant response rating [5, 21] | Crabgrass, Large plant response rating [5, 22] | Foxtail, Giant plant response rating [6, 21] | Foxtail, Giant plant response rating [6, 22] | Plant response rating, Foxtail, Giant [6, 23] | Barnyardgrass plant response rating [9, 22] | Plant response rating, Barnyardgrass [9, 24]
95: Plant response rating, Crabgrass, Large [5, 23] | Plant response rating (scale of 0 to 100), Foxtail, Giant ([6]; Preemergence, 250 g ai/ha) | Plant response rating (scale of 0 to 100; 0 is no effect, 100 is complete control), Barnyardgrass ([9]; Preemergence, 250 g ai/ha)
25: Plant response rating, Morningglory [8, 19]
65: Plant response rating, Crabgrass, Large [5, 20] | Plant response rating, Lambsquarters [7, 18] | Plant response rating, Lambsquarters [7, 19]
15: Plant response rating, Barnyardgrass [9, 18] | Plant response rating, Velvetleaf [12, 20] | Plant response rating (scale of 0 to 100), Velvetleaf ([12]; Preemergence, 250 g ai/ha)
10: Plant response rating, Foxtail, Giant [6, 17] | Plant response rating, Lambsquarters [7, 17] | Plant response rating, Morningglory [8, 18] | Plant response rating, Morningglory [8, 20] | Plant response rating, Morningglory [8, 23] | Plant response rating (scale of 0 to 100), Morningglory ([8]; Preemergence, 250 g ai/ha) | Plant response rating, Waterhemp [10, 19] | Plant response rating, Waterhemp [10, 20]
75: Plant response rating, Galium [4, 23]
98: Plant response rating (scale of 0 to 100), Crabgrass, Large ([5]; Preemergence, 250 g ai/ha)
85: Plant response rating (scale of 0 to 100), Galium ([4]; Preemergence, 250 g ai/ha)
30: Plant response rating, Galium [4, 17] | Plant response rating, Crabgrass, Large [5, 18] | Plant response rating, Lambsquarters [7, 23] | Plant response rating, Waterhemp [10, 23]
5: Plant response rating, Waterhemp [10, 18] | Plant response rating, Velvetleaf [12, 17] | Plant response rating, Velvetleaf [12, 18] | Plant response rating, Velvetleaf [12, 19]
55: Plant response rating, Galium [4, 19] | Plant response rating, Barnyardgrass [9, 19]
60: Plant response rating, Galium [4, 20] | Plant response rating, Crabgrass, Large [5, 19] | Plant response rating, Morningglory [8, 17] | Plant response rating, Barnyardgrass [9, 20] | Barnyardgrass plant response rating [9, 21]
40: Plant response rating, Galium [4, 18] | Plant response rating, Foxtail, Giant [6, 19] | Plant response rating (scale of 0 to 100), Waterhemp ([10]; Preemergence, 250 g ai/ha)

O=C1NCC(c2cccc(C(F)(F)F)c2)C1C(=O)Nc1cccc(Cl)c1F (stereo not drawn) [Compound 316]
55: Plant response rating, Lambsquarters [7, 17] | Plant response rating, Morningglory [8, 17] | Plant response rating, Waterhemp [10, 20]
45: Plant response rating, Velvetleaf [12, 19]
20: Plant response rating, Pigweed [3, 14] | Plant response rating, Pigweed [3, 15] | Pigweed plant response rating [3, 16] | Lambsquarters plant response rating [7, 22]
90: Plant response rating, Barnyardgrass [1, 14] | Barnyardgrass plant response rating [1, 16] | Plant response rating, Foxtail, Giant [2, 13] | Plant response rating, Foxtail, Giant [2, 14] | Plant response rating, Foxtail, Giant [2, 15] | Foxtail, Giant plant response rating [2, 16] | Plant response rating (scale of 0 to 100), Galium ([4]; Preemergence, 250 g ai/ha) | Crabgrass, Large plant response rating [5, 21] | Foxtail, Giant plant response rating [6, 22] | Plant response rating, Foxtail, Giant [6, 23] | Plant response rating, Barnyardgrass [9, 24] | Plant response rating (scale of 0 to 100; 0 is no effect, 100 is complete control), Barnyardgrass ([9]; Preemergence, 250 g ai/ha)
50: Plant response rating, Crabgrass, Large [5, 18]
5: Plant response rating, Foxtail, Giant [6, 17] | Plant response rating, Foxtail, Giant [6, 18] | Plant response rating, Oat, Wild [11, 27]
10: Plant response rating, Morningglory [8, 19] | Plant response rating, Morningglory [8, 20] | Plant response rating, Barnyardgrass [9, 17] | Plant response rating, Waterhemp [10, 17] | Plant response rating, Waterhemp [10, 18] | Plant response rating, Waterhemp [10, 19] | Velvetleaf plant response rating [12, 22] | Plant response rating, Velvetleaf [12, 23]
0: Plant response rating, Pigweed [3, 13] | Galium plant response rating [4, 21] | Galium plant response rating [4, 22] | Plant response rating, Galium [4, 23] | Plant response rating, Crabgrass, Large [5, 17] | Lambsquarters plant response rating [7, 21] | Plant response rating, Morningglory [8, 18] | Morningglory plant response rating [8, 21] | Morningglory plant response rating [8, 22] | Plant response rating, Oat, Wild [11, 25] | Plant response rating, Oat, Wild [11, 26] | Plant response rating, Velvetleaf [12, 17] | Plant response rating, Velvetleaf [12, 18]
35: Plant response rating (scale of 0 to 100), Morningglory ([8]; Preemergence, 250 g ai/ha) | Plant response rating, Barnyardgrass [9, 18] | Waterhemp plant response rating [10, 22] | Plant response rating, Waterhemp [10, 23] | Plant response rating, Velvetleaf [12, 20]
95: Crabgrass, Large plant response rating [5, 22] | Plant response rating, Crabgrass, Large [5, 23] | Plant response rating (scale of 0 to 100), Foxtail, Giant ([6]; Preemergence, 250 g ai/ha)
70: Plant response rating, Crabgrass, Large [5, 20] | Plant response rating, Barnyardgrass [9, 20]
65: Plant response rating, Lambsquarters [7, 18] | Plant response rating, Lambsquarters [7, 20] | Plant response rating, Lambsquarters [7, 23] | Plant response rating (scale of 0 to 100), Lambsquarters ([7]; Preemergence, 250 g ai/ha)
80: Plant response rating, Barnyardgrass [1, 13] | Plant response rating, Barnyardgrass [1, 15]
25: Plant response rating, Morningglory [8, 23]
60: Plant response rating, Crabgrass, Large [5, 19] | Plant response rating, Barnyardgrass [9, 19]
85: Plant response rating, Foxtail, Giant [6, 19] | Plant response rating, Foxtail, Giant [6, 20] | Foxtail, Giant plant response rating [6, 21] | Barnyardgrass plant response rating [9, 21] | Barnyardgrass plant response rating [9, 22]
30: Plant response rating, Oat, Wild [11, 28]
40: Plant response rating, Lambsquarters [7, 19]
98: Plant response rating (scale of 0 to 100), Crabgrass, Large ([5]; Preemergence, 250 g ai/ha)
